The values that follow come from patent US11666572B2, “Treatment of HER2 positive cancers” (Seagen Inc., priority 2017, dated 2023).

Read-outs that look alike come from different tables or passages of the source.

The conditions of data set [1]: cited from earlier work.
Data set [2] deals with NCI-H2170 NSCLC xenograft model. In words: NCI-H2170 NSCLC xenograft model, tumor growth inhibition. The data set is classed as in vivo, Mice. The note with it: study day 39, tucatinib 50 mg/kg orally twice per day, trastuzumab 20 mg/kg IP twice per week, from study day 18. The method, then: (§1) The term “tumor growth inhibition (TGI) index” refers to a value used to represent the degree to which an agent (e.g., tucatinib, an anti-HER2 antibody, or a combination thereof) inhibits the growth of a tumor when compared to an untreated control. The TGI index is calculated for a particular time point (e.g., a specific number of days into an experiment or clinical trial) according to the following formula:
(§2) [formula] where “Tx Day 0” denotes the first day that treatment is administered (i.e., the first day that an experimental therapy or a control therapy (e.g., vehicle only) is administered) and “Tx Day X” denotes X number of days after Day 0.
(§3) For the Calu-3 study, tucatinib was administered orally at a dose of 50 mg/kg twice per day for 21 days, beginning on study day 7. […] A vehicle-only group was included as a negative control.
For the NCI-H2170 study, tucatinib was administered orally at a dose of 50 mg/kg twice per day for 21 days, beginning on study day 18. […] A vehicle-only group was included as a negative control.

Data set [3] deals with GXA 3054 gastric cancer PDX model. In words: GXA 3054 gastric cancer PDX model, tumor growth inhibition. Conditions: study day 17, tucatinib 50 mg/kg orally twice per day, trastuzumab 20 mg/kg IP once every three days. The data set is classed as in vivo, Mice. As to the method:
as §1, §2
(§4) Tucatinib was administered orally at a dose of 50 mg/kg twice per day for 28 days (study days 0-27). […] A vehicle-only group was included as a negative control.

Data set [4] deals with CTG-0383 CRC PDX model. In words: CTG-0383 CRC PDX model, tumor growth inhibition. The data set is classed as in vivo, Mice. Conditions: study day 29, tucatinib 50 mg/kg orally twice per day, trastuzumab 20 mg/kg IP once every three days. As to the method: as §1, §2, §4
For data set [5], the system named is CTG-0927 HER2 positive cholangiocarcinoma PDX model. In words: CTG-0927 cholangiocarcinoma PDX model, tumor growth inhibition. The data set is classed as in vivo, Mice. Conditions: study day 28, tucatinib 50 mg/kg orally twice per day, trastuzumab 20 mg/kg IP once every three days. As to the method:
as §1, §2, §4

The test system of data set [6] is CTG-0138 esophageal cancer PDX model. In words: CTG-0138 esophageal cancer PDX model, tumor growth inhibition. The note with it: study day 30, tucatinib 50 mg/kg orally twice per day, trastuzumab 20 mg/kg IP once every three days. The data set is classed as in vivo, Mice. As to the method: as §1, §2, §4
Data set [7] concerns CTG-0121 CRC PDX model. In words: CTG-0121 CRC PDX model, tumor growth inhibition. The data set is classed as in vivo, Mice. Conditions: study day 29, tucatinib 50 mg/kg orally twice per day, trastuzumab 20 mg/kg IP once every three days. The method, then: as §1, §2, §4
Data set [8] deals with Calu-3 cells. In words: Response of Calu-3 cells in vitro. The data set is classed as cell-based. The note with it: previously demonstrated.
Data set [9] can be described thus: Clinical safety observations in patients. The data set is classed as in vivo, human. The note with it: patients on tucatinib studies. The source says: Cardiac function is therefore monitored closely.
Monitoring of liver function tests is required for any patient taking tucatinib.
Patients with brain metastases are at risk for occurrence of AEs due to the presence of CNS lesions, progression of disease and toxicities potentially related to study treatment. On occasion, treatment of brain metastases with systemic or radiation therapy has been associated with localized edema thought to be due to treatment effect and not tumor progression. […] The patient's symptoms responded rapidly and completely to systemic corticosteroids. It was not known if this patient's symptoms were due to local progression or treatment-related toxicity. […] The patient was taken for surgical resection, and found to have no viable tumor. The resected lesion was thought to represent treatment-related necrosis.

For data set [10], the system named is Calu-3 NSCLC xenograft model. In words: Calu-3 NSCLC xenograft model, tumor growth inhibition. The data set is classed as in vivo, Mice. The note with it: study day 28, tucatinib 50 mg/kg orally twice per day, trastuzumab 20 mg/kg IP once every three days, from study day 7. As to the method:
as §1, §2, §3

In data set [11] the test system is CTG-0137 esophageal cancer PDX model. In words: CTG-0137 esophageal cancer PDX model, tumor growth inhibition. Conditions: study day 15, tucatinib 50 mg/kg orally twice per day, trastuzumab 20 mg/kg IP once every three days. The data set is classed as in vivo, Mice. The method, then:
as §1, §2, §4

Data set [12] concerns GXA 3039 gastric cancer PDX model. In words: GXA 3039 gastric cancer PDX model, tumor growth inhibition. Conditions: study day 29, tucatinib 50 mg/kg orally twice per day, trastuzumab 20 mg/kg IP once every three days. The data set is classed as in vivo, Mice. As to the method:
as §1, §2, §4

The test system of data set [13] is CTG-0784 CRC PDX model. In words: CTG-0784 CRC PDX model, tumor growth inhibition. The data set is classed as in vivo, Mice. The note with it: study day 29, tucatinib 50 mg/kg orally twice per day, trastuzumab 20 mg/kg IP once every three days. The method, then:
as §1, §2, §4

In data set [14] the test system is NCI-H2170 cells. In words: Response of NCI-H2170 cells in vitro. The data set is classed as cell-based. Conditions: previously demonstrated.
Data set [15] concerns GXA 3038 gastric cancer PDX model. In words: GXA 3038 gastric cancer PDX model, tumor growth inhibition. The data set is classed as in vivo, Mice. Conditions: study day 28, tucatinib 50 mg/kg orally twice per day, trastuzumab 20 mg/kg IP once every three days. As to the method: as §1, §2, §4
For data set [16] the following is noted: attributed to anti-EGFR/HER1 activity of the drug; cited from earlier work.
For data set [17], the system named is HER2 positive metastatic CRC (wild-type KRAS exon 2). The note with it: HERACLES patients, previous treatment with cetuximab or panitumumab; cited from earlier work.
Setting [18] is: Table 11, strong inhibitors or inducers of CYP3A4.
[19] abbreviates: Table 10, strong inhibitors and inducer of CYP2C8.

`NC(=O)N1c2ccccc2C=Cc2ccccc21` [Carbamazepine]: the “Elimination Half-life” value in data set [1] (setting [18]) is 25 to 65 h.
As to `CC[C@H]1OC(=O)[C@H](C)[C@@H](O[C@H]2C[C@@](C)(OC)[C@@H](O)[C@H](C)O2)[C@H](C)[C@@H](O[C@@H]2O[C@H](C)C[C@H](N(C)C)[C@H]2O)[C@](C)(OC)C[C@@H](C)C(=O)[C@H](C)[C@@H](O)[C@]1(C)O` [Clarithromycin], the “Elimination Half-life” value in [1] (setting [18]) is 3 to 7 h.
In the case of `C#C[C@]1(O)CC[C@H]2[C@@H]3CCC4=Cc5oncc5C[C@]4(C)[C@H]3CC[C@@]21C` [Danazol], the “Elimination Half-life” value in data set [1] (setting [18]) was 24 to 26 h.
Consider `CC[C@H]1OC(=O)[C@H](C)[C@@H](O[C@H]2C[C@@](C)(OC)[C@@H](O)[C@H](C)O2)[C@H](C)[C@@H](O[C@@H]2O[C@H](C)C[C@H](N(C)C)[C@H]2O)[C@](C)(O)C[C@@H](C)C(=O)[C@H](C)[C@@H](O)[C@]1(C)O` [Erythromycin], for which the “Elimination Half-life” value in data set [1] (setting [18]) is 2 h.
As for `Cc1ccc(C)c(OCCCC(C)(C)C(=O)O)c1` [Gemfibrozil], the “Elimination Half-life” value in data set [1] (setting [19]) is 1 to 2 h.
As to `CCC(C)n1ncn(-c2ccc(N3CCN(c4ccc(OCC5COC(Cn6cncn6)(c6ccc(Cl)cc6Cl)O5)cc4)CC3)cc2)c1=O` (stereo not drawn) [Itraconazole], the “Elimination Half-life” value is 21 h in [1] (Table 11, single dose) and 64 h in data set [1] (Table 11, steady state).
With `CC(C)(O)c1ccccc1CC[C@@H](SCC1(CC(=O)O)CC1)c1cccc(/C=C/c2ccc3ccc(Cl)cc3n2)c1` [Montelukast], in [1] (setting [19]), the “Elimination Half-life” value is 3 to 6 h (drug insert).
Consider `CCc1nn(CCCN2CCN(c3cccc(Cl)c3)CC2)c(=O)n1CCOc1ccccc1` [Nefazodone], for which the “Elimination Half-life” value in data set [1] (setting [18]) was 2 to 4 h.
Regarding `O=C1NC(=O)C(c2ccccc2)(c2ccccc2)N1` [Phenytoin], in data set [1] (setting [18]), the “Elimination Half-life” value is 7 to 42 h.
As for `CCc1ccc(CCOc2ccc(CC3SC(=O)NC3=O)cc2)nc1` (stereo not drawn) [Pioglitazone], the “Elimination Half-life” value in [1] (setting [19]) is 3 to 7 h.
As for `O=c1c(O)c(-c2ccc(O)c(O)c2)oc2cc(O)cc(O)c12` [Quercetin], the “Elimination Half-life” value in data set [1] (setting [19]) was below 2 h.
For `CN(CCOc1ccc(CC2SC(=O)NC2=O)cc1)c1ccccn1` (stereo not drawn) [Rosiglitazone], the “Elimination Half-life” value in data set [1] (setting [19]) is 16 to 24 h.
For the compound `CC[C@H]1OC(=O)[C@H](C)C(=O)[C@H](C)[C@@H](O[C@@H]2O[C@H](C)C[C@H](N(C)C)[C@H]2O)[C@](C)(OC)C[C@@H](C)C(=O)[C@H](C)[C@H]2N(CCCCn3cnc(-c4cccnc4)c3)C(=O)O[C@]12C` [Telithromycin], the “Elimination Half-life” value in data set [1] (setting [18]) is 10 h.
For the compound `COc1cc(Cc2cnc(N)nc2N)cc(OC)c1OC` [Trimethoprim], in [1] (setting [19]), the “Elimination Half-life” value is 8 to 10 h.
For the compound `Cc1cc(Nc2ncnc3ccc(NC4=NC(C)(C)CO4)cc23)ccc1Oc1ccn2ncnc2c1` [Tucatinib, tucatinib], the “Observed TGI (%)” value in data set [2] came to 91%; in data set [3], 65%; in data set [4] it was 117%; in data set [5] it was 48%; in data set [6], 69%; in data set [7] it was 104%. For the same compound, the “Observed TGI (%)” value amounted to 63% in [10]; 49% in data set [11]; 48% in [12]; 50% in [13]; 110% in data set [15]. Also, the Response in vitro result in [8] and in [14] was “good responses” in each case. Also, in [9], the “Elevation of liver function tests” value is “Grade 3 and 4 elevation of LFTs have been seen in some patients”.
As to `C[C@@H](c1ncncc1F)[C@](O)(Cn1cncn1)c1ccc(F)cc1F` [Voriconazole], the “Elimination Half-life (hours)” value in data set [1] (setting [18]) is reported as “Dose dependent”.
Regarding `CC(=O)N1CCN(c2ccc(OCC3COC(Cn4ccnc4)(c4ccc(Cl)cc4Cl)O3)cc2)CC1` (stereo not drawn) [ketoconazole (systemic), ketoconazole], the “Elimination Half-life” value in data set [1] (setting [18]) was 2 to 8 h.
Turning to `CS(=O)(=O)CCNCc1ccc(-c2ccc3ncnc(Nc4ccc(OCc5cccc(F)c5)c(Cl)c4)c3c2)o1` [lapatinib], the Toxicities result in data set [16] was “rash, diarrhea, and fatigue”.
For panitumumab, in data set [17], the “ORR on previous treatment” value is 0%.
